Experimental data reported in paper PMC11876601 (Molecular Systems Biology, 2025).

Experiments:
[1] = test system: TANK; design: method as in Klaeger et al. (2017); conditions: lysate 4 cell line mix (Colo205, K-562, MV-4-11, and SK-N-BE(2)), Kinobeads y, ref Klaeger et al. (2017); cited from earlier work
[2] = test system: TGFBR1; design: method as in Klaeger et al. (2017); conditions: lysate 4 cell line mix (Colo205, K-562, MV-4-11, and SK-N-BE(2)), Kinobeads y, ref Klaeger et al. (2017); cited from earlier work
[3] = test system: AP2A1; design: method as in Klaeger et al. (2017); conditions: AP2A1, 4 cell line mix lysate, Kinobeads y, ref Klaeger et al. (2017); cited from earlier work
[4] = test system: PHKA2; design: method as in Reinecke et al. (2023); conditions: PHKA2, 5 cell line mix lysate, Kinobeads ε, ref Reinecke et al. (2023), cited from earlier work
[5] = target: IGF1R; design: method as in Reinecke et al. (2023); conditions: 5 cell line mix lysate, Kinobeads ε, ref Reinecke et al. (2023), cited from earlier work
[6] = test system: TAOK2; design: method as in Reinecke et al. (2023); conditions: TAOK2, 5 cell line mix lysate, Kinobeads ε, ref Reinecke et al. (2023), cited from earlier work
[7] = target: ADCK1 ; Q86TW2;Q86TW2-2;Q86TW2-3 (Homo sapiens, UniProt Q86TW2); test: biochemical; design: species or system AsPC-1; Kinobeads competition pulldown in AsPC-1 lysate with LC-MS/MS label-free quantification; apparent Kd
Description: (§1) This was followed by incubation with Kinobeads ε (17.5 µl of settled beads) for 30 min at 4 °C to enrich kinases. […] Enriched proteins were reduced with 50 mM DTT in 8 M urea, 40 mM Tris-HCl, pH 7.4 for 30 min at room temperature, and alkylated with 55 mM chloroacetamide. After reducing the urea concentration to 1–2 M, proteins were digested with trypsin at 37 °C for 16 h. Subsequently, eluted peptides were desalted using SepPak tC18 µElution plates (Waters), freeze-dried by vacuum centrifugation, and stored at −20 °C. Proteins were filtered by potential contaminants, reversed hits and proteins identified only by site. Residual binding of proteins was calculated from LFQ intensities as the ratio between drug doses and vehicle. […] Only kinases quantified with at least 4 unique peptides in the vehicle experiment were considered. Potential targets were further curated through manual inspection of dose-dependent reduction in MS/MS and unique peptide counts.

[8] = target: AXL ; P30530-2;P30530 (Homo sapiens, UniProt P30530); test: biochemical; design: species or system AsPC-1; Kinobeads competition pulldown in AsPC-1 lysate with LC-MS/MS label-free quantification; apparent Kd
Description: as §1

[9] = target: CDC42BPA ; Q5VT25-5;Q5VT25-4;Q5VT25;Q5VT25-2;Q5VT25-6;Q5VT25-3 (Homo sapiens, UniProt Q5VT25); test: biochemical; design: species or system AsPC-1; Kinobeads competition pulldown in AsPC-1 lysate with LC-MS/MS label-free quantification; apparent Kd
Description: as §1

[10] = target: CDK10 ; Q15131;Q15131-5;Q15131-2;Q15131-6;Q15131-4;Q15131-3;Q15131-7 (Homo sapiens, UniProt Q15131); test: biochemical; design: species or system AsPC-1; Kinobeads competition pulldown in AsPC-1 lysate with LC-MS/MS label-free quantification; apparent Kd
Description: as §1

[11] = target: CIT ; O14578-4;O14578;O14578-2 (Homo sapiens, UniProt O14578); test: biochemical; design: species or system AsPC-1; Kinobeads competition pulldown in AsPC-1 lysate with LC-MS/MS label-free quantification; apparent Kd
Description: as §1

[12] = target: CLK1 ; P49759-3;P49759;P49759-2 (Homo sapiens, UniProt P49759); test: biochemical; design: species or system AsPC-1; Kinobeads competition pulldown in AsPC-1 lysate with LC-MS/MS label-free quantification; apparent Kd
Description: as §1

[13] = target: CLK2 ; P49760-3;P49760 (Homo sapiens, UniProt P49760); test: biochemical; design: species or system AsPC-1; Kinobeads competition pulldown in AsPC-1 lysate with LC-MS/MS label-free quantification; apparent Kd
Description: as §1

[14] = target: CSNK2A2 ; P19784 (Homo sapiens, UniProt P19784); test: biochemical; design: species or system AsPC-1; Kinobeads competition pulldown in AsPC-1 lysate with LC-MS/MS label-free quantification; apparent Kd
Description: as §1

[15] = target: GSK3B ; P49841-2;P49841 (Homo sapiens, UniProt P49841); test: biochemical; design: species or system AsPC-1; Kinobeads competition pulldown in AsPC-1 lysate with LC-MS/MS label-free quantification; apparent Kd
Description: as §1

[16] = target: PIK3C3 ; Q8NEB9 (Homo sapiens, UniProt Q8NEB9); test: biochemical; design: species or system AsPC-1; Kinobeads competition pulldown in AsPC-1 lysate with LC-MS/MS label-free quantification; apparent Kd
Description: as §1

[17] = target: PIP4K2C ; Q8TBX8;Q8TBX8-2;Q8TBX8-3 (Homo sapiens, UniProt Q8TBX8); test: biochemical; design: species or system AsPC-1; Kinobeads competition pulldown in AsPC-1 lysate with LC-MS/MS label-free quantification; apparent Kd
Description: as §1

[18] = target: STK3 ; Q13188;Q13188-2 (Homo sapiens, UniProt Q13188); test: biochemical; design: species or system AsPC-1; Kinobeads competition pulldown in AsPC-1 lysate with LC-MS/MS label-free quantification; apparent Kd
Description: as §1

Chain of STK3 ; Q13188;Q13188-2 (Q13188 whole entry): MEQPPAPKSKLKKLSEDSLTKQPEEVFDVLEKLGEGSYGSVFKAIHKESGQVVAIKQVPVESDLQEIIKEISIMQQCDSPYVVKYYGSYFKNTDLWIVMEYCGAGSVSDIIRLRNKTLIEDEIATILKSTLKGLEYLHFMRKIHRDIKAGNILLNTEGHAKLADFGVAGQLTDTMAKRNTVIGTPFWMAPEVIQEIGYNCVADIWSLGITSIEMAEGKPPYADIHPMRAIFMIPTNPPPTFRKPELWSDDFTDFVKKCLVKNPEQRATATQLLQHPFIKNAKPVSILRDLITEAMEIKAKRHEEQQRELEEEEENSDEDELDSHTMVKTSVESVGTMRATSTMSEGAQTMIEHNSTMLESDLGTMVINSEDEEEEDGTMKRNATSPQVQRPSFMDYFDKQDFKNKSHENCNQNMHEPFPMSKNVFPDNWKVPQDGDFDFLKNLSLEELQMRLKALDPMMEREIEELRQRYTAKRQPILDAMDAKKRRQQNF
Chain of CLK2 ; P49760-3;P49760 (P49760 whole entry): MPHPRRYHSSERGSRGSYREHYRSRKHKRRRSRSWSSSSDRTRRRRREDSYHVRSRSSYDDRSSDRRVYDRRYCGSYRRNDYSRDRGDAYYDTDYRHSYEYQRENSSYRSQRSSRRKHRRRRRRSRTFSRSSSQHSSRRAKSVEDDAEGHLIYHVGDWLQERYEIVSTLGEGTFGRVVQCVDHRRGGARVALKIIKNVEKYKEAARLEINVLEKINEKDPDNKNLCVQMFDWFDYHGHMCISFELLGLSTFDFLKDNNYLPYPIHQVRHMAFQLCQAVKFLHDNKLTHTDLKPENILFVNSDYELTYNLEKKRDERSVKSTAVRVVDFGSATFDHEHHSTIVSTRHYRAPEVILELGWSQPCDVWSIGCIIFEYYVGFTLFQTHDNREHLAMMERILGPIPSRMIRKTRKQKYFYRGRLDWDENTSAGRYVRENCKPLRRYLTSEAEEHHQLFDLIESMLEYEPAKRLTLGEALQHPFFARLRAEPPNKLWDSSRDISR
Chain of PIP4K2C ; Q8TBX8;Q8TBX8-2;Q8TBX8-3 (Q8TBX8 whole entry): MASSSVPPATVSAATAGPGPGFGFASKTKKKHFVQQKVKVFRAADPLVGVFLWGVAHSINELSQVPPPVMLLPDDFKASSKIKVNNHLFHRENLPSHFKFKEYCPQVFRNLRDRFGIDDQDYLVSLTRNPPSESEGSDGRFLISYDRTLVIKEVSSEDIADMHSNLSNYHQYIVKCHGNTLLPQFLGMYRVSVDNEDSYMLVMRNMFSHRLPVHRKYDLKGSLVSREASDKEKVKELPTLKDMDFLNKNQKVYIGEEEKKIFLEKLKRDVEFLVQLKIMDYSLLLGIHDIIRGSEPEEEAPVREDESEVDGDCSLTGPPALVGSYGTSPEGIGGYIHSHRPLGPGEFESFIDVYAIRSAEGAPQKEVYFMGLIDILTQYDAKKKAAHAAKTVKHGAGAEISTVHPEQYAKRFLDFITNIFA
Chain of CDK10 ; Q15131;Q15131-5;Q15131-2;Q15131-6;Q15131-4;Q15131-3;Q15131-7 (Q15131 whole entry): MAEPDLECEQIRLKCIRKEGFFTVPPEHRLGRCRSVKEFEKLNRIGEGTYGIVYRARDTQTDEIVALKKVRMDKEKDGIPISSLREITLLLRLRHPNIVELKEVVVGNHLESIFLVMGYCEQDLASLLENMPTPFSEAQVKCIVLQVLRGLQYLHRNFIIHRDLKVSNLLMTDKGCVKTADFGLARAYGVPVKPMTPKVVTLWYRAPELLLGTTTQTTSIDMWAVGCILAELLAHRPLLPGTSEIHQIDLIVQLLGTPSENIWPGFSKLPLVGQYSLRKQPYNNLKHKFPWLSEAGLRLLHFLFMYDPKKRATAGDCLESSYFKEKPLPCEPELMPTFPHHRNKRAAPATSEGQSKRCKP
Chain of GSK3B ; P49841-2;P49841 (P49841 whole entry): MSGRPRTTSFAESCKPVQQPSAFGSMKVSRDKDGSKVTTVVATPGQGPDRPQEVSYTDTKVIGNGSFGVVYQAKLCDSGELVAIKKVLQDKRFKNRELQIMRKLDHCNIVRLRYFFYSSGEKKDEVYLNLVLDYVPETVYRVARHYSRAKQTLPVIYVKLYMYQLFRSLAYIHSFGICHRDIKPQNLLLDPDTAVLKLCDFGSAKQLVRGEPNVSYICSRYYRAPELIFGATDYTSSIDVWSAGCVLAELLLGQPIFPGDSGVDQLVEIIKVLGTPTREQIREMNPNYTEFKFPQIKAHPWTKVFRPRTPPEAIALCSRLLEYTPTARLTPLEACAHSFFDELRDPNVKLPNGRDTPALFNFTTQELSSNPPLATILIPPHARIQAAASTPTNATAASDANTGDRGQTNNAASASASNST
Chain of CDC42BPA ; Q5VT25-5;Q5VT25-4;Q5VT25;Q5VT25-2;Q5VT25-6;Q5VT25-3 (Q5VT25 whole entry): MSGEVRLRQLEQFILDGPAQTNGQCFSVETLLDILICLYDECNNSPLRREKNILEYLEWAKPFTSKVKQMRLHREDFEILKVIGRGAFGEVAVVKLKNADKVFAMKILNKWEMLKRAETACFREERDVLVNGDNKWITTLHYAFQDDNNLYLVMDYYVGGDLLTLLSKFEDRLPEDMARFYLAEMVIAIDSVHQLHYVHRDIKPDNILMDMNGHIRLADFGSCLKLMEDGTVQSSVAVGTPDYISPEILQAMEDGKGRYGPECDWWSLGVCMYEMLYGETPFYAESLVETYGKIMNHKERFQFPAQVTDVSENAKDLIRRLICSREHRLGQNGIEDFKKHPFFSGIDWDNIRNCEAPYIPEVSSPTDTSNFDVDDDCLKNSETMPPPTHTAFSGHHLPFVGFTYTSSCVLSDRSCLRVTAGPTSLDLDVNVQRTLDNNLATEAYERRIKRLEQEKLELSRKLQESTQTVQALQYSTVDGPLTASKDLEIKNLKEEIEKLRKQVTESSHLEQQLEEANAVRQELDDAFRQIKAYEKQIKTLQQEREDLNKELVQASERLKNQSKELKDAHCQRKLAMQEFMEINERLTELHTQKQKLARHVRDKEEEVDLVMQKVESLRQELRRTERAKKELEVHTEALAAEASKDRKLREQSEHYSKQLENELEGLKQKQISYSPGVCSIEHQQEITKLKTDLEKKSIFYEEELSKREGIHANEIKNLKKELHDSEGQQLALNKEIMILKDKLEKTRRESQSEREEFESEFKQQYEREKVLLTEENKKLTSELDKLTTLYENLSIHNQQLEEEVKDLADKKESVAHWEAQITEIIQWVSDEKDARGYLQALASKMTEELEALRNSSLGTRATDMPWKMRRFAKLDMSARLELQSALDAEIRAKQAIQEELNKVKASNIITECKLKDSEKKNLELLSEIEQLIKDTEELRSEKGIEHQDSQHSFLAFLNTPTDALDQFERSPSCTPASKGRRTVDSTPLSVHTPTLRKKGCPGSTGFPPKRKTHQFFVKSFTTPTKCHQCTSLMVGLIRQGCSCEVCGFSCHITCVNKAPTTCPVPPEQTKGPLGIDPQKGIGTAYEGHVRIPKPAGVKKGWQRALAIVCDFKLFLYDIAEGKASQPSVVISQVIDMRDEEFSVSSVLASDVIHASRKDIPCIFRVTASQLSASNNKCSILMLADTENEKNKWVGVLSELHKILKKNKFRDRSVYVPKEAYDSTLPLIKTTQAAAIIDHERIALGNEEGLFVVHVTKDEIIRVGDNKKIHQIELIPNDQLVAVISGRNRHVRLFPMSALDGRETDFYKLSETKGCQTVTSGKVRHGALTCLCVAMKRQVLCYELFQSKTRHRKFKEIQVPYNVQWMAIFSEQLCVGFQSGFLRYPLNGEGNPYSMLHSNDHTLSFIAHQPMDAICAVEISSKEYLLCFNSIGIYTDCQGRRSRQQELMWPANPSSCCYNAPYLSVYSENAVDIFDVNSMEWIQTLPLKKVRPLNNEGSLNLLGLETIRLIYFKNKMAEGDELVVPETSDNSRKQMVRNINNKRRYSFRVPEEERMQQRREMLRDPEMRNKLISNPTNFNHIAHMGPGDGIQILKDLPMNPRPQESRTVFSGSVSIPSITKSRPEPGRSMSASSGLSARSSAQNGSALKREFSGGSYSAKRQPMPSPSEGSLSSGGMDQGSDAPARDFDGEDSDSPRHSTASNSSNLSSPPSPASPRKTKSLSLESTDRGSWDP
Chain of CSNK2A2 ; P19784 (P19784 whole entry): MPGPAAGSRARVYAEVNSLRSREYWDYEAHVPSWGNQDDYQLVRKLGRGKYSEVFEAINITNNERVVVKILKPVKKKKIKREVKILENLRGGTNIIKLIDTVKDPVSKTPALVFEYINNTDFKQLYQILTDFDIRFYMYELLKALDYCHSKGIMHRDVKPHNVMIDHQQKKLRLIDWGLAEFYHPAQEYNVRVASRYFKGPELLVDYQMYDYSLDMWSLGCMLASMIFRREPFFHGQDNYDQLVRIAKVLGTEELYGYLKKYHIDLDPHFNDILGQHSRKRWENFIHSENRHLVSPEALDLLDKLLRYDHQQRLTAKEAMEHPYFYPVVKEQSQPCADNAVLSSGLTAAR
Chain of ADCK1 ; Q86TW2;Q86TW2-2;Q86TW2-3 (Q86TW2 whole entry): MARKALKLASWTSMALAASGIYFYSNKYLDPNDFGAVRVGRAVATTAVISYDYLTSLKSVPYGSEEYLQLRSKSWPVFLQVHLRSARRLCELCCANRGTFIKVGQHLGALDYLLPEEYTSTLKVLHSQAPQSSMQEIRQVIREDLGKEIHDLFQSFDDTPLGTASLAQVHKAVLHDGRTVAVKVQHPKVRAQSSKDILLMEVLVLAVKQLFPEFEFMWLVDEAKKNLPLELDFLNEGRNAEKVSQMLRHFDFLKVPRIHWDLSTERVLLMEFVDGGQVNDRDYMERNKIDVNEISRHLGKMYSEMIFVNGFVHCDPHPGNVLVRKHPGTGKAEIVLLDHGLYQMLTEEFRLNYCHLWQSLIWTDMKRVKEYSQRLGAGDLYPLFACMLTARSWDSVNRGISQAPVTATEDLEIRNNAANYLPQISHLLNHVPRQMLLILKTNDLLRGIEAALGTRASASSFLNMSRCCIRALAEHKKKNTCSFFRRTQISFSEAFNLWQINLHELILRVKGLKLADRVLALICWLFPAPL

Compound: C[C@]12O[C@H](C[C@]1(O)CO)n1c3ccccc3c3c4c(c5c6ccccc6n2c5c31)CNC4=O [Lestaurtinib]
- EC50 [1]: 1340 nM
- EC50 [3]: 83.7 nM

Compound: COc1cc(N2CCC(N3CCN(C)CC3)CC2)ccc1Nc1ncc(Cl)c(Nc2ccccc2P(C)(C)=O)n1 [Brigatinib]
- EC50 [4]: 19.7 nM
- pKDapp [4]: 7.71
- Kd ([4]; read-out: KDapp): 19.7 nM
- Kd ([5]; read-out: KDapp): 1320 nM
- EC50 [5]: 2000 nM
- pKDapp [5]: 5.88
- EC50 [6]: 3110 nM
- pKDapp [6]: 5.74
- Kd ([6]; read-out: KDapp): 1830 nM

Compound: Nc1nn2cc(F)cnc2c1C(=O)Nc1cncc(F)c1N1CCC(C(=O)N2CCN(C3COC3)CC2)CC1 [Gartisertib]
- Kd [7]: 23.2 nM
- Kd [8]: 473 nM
- Kd [9]: 15.4 nM
- Kd [10]: 153 nM
- Kd [11]: 40 nM
- Kd [12]: 70.9 nM
- Kd [13]: 303 nM
- Kd [14]: 15.1 nM

Compound: CNCc1ccc(-c2cc(-c3nc(-c4ccc(S(=O)(=O)C(C)C)cc4)cnc3N)on2)cc1 [Berzosertib]
- Kd [15]: 33.2 nM
- Kd [16]: 9.2 nM
- Kd [17]: 21.4 nM
- Kd [18]: 70.2 nM
